Measurements reported in patent publication US5674840A, “Synthetic aglucodalbaheptide antibiotics” (Gruppo Lepetit SpA, priority 1993, dated 1997).

How the values were obtained:
Experiment in all cases: in vitro antibacterial activity, MIC microdilution
[1] = tested on: E. faecalis clin. isol. (L 502); type: cell-based, Enterococcus faecalis; conditions: for MIC: E. faecalis clin. isol. (L 502), Mueller-Hinton broth, 0.01% bovine serum albumin, 37° C., 18-24 hours
Procedure: (§1) The in vitro antibacterial activity of the compounds is determined by means of standard […] tests in microtiter. Iso-Sensitest broth (Oxoid) is used for all bacteria except streptococci (Todd-Wewitt broth, Difco) and enterococci (Mueller-Hinton, Difco). Broth cultures are diluted so that the final inoculum was about 5×10^5 cfu/ml (colony forming units per ml). All broth microdilution MICs are performed in the presence of 0.01% bovine serum albumin (Pentax fraction V, Sigma).

[2] = tested on: Strep. pyogenes C203 (L 49); type: cell-based; conditions: Todd-Wewitt broth, 0.01% bovine serum albumin, 37° C., 18-24 hours
Procedure: as §1, with “(Todd-[…]” for “(Todd-Wewitt”, “ml).” for “ml). All broth microdilution MICs are performed in the presence of 0.01% bovine serum albumin (Pentax fraction V, Sigma).”

s. aureus Smith (L 819) = type: cell-based; conditions: Iso-Sensitest broth, 0.01% bovine serum albumin, 37° C., 18-24 hours
Procedure: as §1, with “(Todd-[…]” for “(Todd-Wewitt”, “ml).” for “ml). All broth microdilution MICs are performed in the presence of 0.01% bovine serum albumin (Pentax fraction V, Sigma).”

[3] = tested on: s. aureus clin. isol. (L 561); type: cell-based; conditions: Iso-Sensitest broth, 0.01% bovine serum albumin, 37° C., 18-24 hours
Procedure: as §1

[4] = tested on: Enterococcus faecalis ATCC 7,080 (L 149); type: cell-based; conditions: Mueller-Hinton broth, 0.01% bovine serum albumin, 37° C., 18-24 hours
Procedure: as §1

[5] = tested on: S. epidermidis ATCC 12,228 (L 147); type: cell-based; conditions: Iso-Sensitest broth, 0.01% bovine serum albumin, 37° C., 18-24 hours
Procedure: as §1

[6] = tested on: Staph. aurevi Tour (L 165); type: cell-based; conditions: Iso-Sensitest broth, 0.01% bovine serum albumin, 37° C., 18-24 hours
Procedure: as §1

[7] = tested on: S. epidermidis clin. isol. (L 533); type: cell-based; conditions: Iso-Sensitest broth, 0.01% bovine serum albumin, 37° C., 18-24 hours
Procedure: as §1

[8] = tested on: S. haemolyticus clin, isol. (L 602); type: cell-based; conditions: Iso-Sensitest broth, 0.01% bovine serum albumin, 37° C., 18-24 hours
Procedure: as §1

[9] = tested on: Strep. pneumoniae UC41 (L 44); type: cell-based; conditions: Todd-Wewitt broth, 0.01% bovine serum albumin, 37° C., 18-24 hours
Procedure: as §1

Compound: (L-phenylalanyl)^3 -(D-lysyl)^15 -aglucoteicoplanin dalbaheptide methyl ester
- MIC [1]: 16 mg/1
- activity against a clinical isolate of Enterococcus faecalis (in words) ([1]; clinical isolate of Enterococcus faecalis): surprisingly active
- MIC [2]: 0.25 mg/1
- MIC (s. aureus Smith (L 819)): 0.13 mg/1
- MIC [3]: 0.06 mg/1
- MIC [4]: 0.5 mg/1
- MIC [5]: 0.13 mg/1
- MIC [6]: 0.13 mg/1
- MIC [7]: 0.13 mg/1
- MIC [8]: 0.5 mg/1
- MIC [9]: 0.13 mg/1

Compound: teicoplanin
- MIC [1]: > 128 mg/1
- MIC [2]: 0.13 mg/1
- MIC (s. aureus Smith (L 819)): 0.25 mg/1
- MIC [3]: 8 mg/1
- MIC [4]: 0.13 mg/1
- MIC [5]: 8 mg/1
- MIC [6]: 0.13 mg/1
- MIC [7]: 8 mg/1
- MIC [8]: 32 mg/1
- MIC [9]: 0.13 mg/1

Compound: N[C@H]1C(=O)N[C@@H]2Cc3ccc(c(Cl)c3)Oc3cc4cc(c3O)Oc3ccc(cc3Cl)[C@@H](O)[C@@H]3NC(=O)[C@H](NC(=O)[C@@H]4NC(=O)[C@@H](NC2=O)c2cc(O)cc(c2)Oc2cc1ccc2O)c1ccc(O)c(c1)-c1c(O)cc(O)cc1[C@@H](C(=O)O)NC3=O [teicoplanin aglycon]
- MIC [1]: > 128 mg/1
- MIC [2]: 0.13 mg/1
- MIC (s. aureus Smith (L 819)): 0.06 mg/1
- MIC [3]: 0.13 mg/1
- MIC [4]: 0.13 mg/1
- MIC [5]: 0.06 mg/1
- MIC [6]: 0.13 mg/1
- MIC [7]: 0.016 mg/1
- MIC [8]: 0.25 mg/1
- MIC [9]: 0.13 mg/1
